Measurements: ChEMBL document CHEMBL1147294, “Plant antimutagenic agents, 5. Isolation and structure of two new isoflavones, fremontin and fremontone from Psorothamnus fremontii” (J Nat Prod, 1989)

Tests used:
Salmonella typhimurium [1] = assay: Antimutagenic activity in Salmonella Typhimurium T-98 assessed as inhibition of 2-aminoanthracene-induced mutation at 300 ug/plate; format: functional, Salmonella enterica subsp. enterica serovar Typhimurium
Salmonella typhimurium [2] = assay: Antimutagenic activity in Salmonella Typhimurium T-98 assessed as inhibition of 2-aminoanthracene-induced mutation at 150 ug/plate; format: functional, Salmonella enterica subsp. enterica serovar Typhimurium
Salmonella typhimurium [3] = assay: Antimutagenic activity in Salmonella Typhimurium T-98 assessed as inhibition of 2-aminoanthracene-induced mutation at 75 ug/plate; format: functional, Salmonella enterica subsp. enterica serovar Typhimurium
Salmonella typhimurium [4] = assay: Antimutagenic activity in Salmonella Typhimurium T-98 assessed as inhibition of 2-aminoanthracene-induced mutation at 37.5 ug/plate; format: functional, Salmonella enterica subsp. enterica serovar Typhimurium
Salmonella typhimurium [5] = assay: Antimutagenic activity in Salmonella Typhimurium assessed as inhibition of 2-aminoanthracene-induced mutation at 0.6 mg/plate; format: functional, Salmonella enterica subsp. enterica serovar Typhimurium
Salmonella typhimurium [6] = assay: Antimutagenic activity in Salmonella Typhimurium assessed as inhibition of 2-aminoanthracene-induced mutation at 0.3 mg/plate; format: functional, Salmonella enterica subsp. enterica serovar Typhimurium
Salmonella typhimurium [7] = assay: Antimutagenic activity in Salmonella Typhimurium T-98 assessed as inhibition of acetylaminofluorene-induced mutation at 300 ug/plate; format: functional, Salmonella enterica subsp. enterica serovar Typhimurium
Salmonella typhimurium [8] = assay: Antimutagenic activity in Salmonella Typhimurium T-98 assessed as inhibition of acetylaminofluorene-induced mutation at 150 ug/plate; format: functional, Salmonella enterica subsp. enterica serovar Typhimurium
Salmonella typhimurium [9] = assay: Antimutagenic activity in Salmonella Typhimurium T-98 assessed as inhibition of acetylaminofluorene-induced mutation at 75 ug/plate; format: functional, Salmonella enterica subsp. enterica serovar Typhimurium
Salmonella typhimurium [10] = assay: Antimutagenic activity in Salmonella Typhimurium T-98 assessed as inhibition of acetylaminofluorene-induced mutation at 37.5 ug/plate; format: functional, Salmonella enterica subsp. enterica serovar Typhimurium
Salmonella typhimurium [11] = assay: Antimutagenic activity in Salmonella Typhimurium T-100 assessed as inhibition of ethyl methanesulfonate-induced mutation at 300 ug/plate; format: functional, Salmonella enterica subsp. enterica serovar Typhimurium
Salmonella typhimurium [12] = assay: Antimutagenic activity in Salmonella Typhimurium T-100 assessed as inhibition of ethyl methanesulfonate-induced mutation at 150 ug/plate; format: functional, Salmonella enterica subsp. enterica serovar Typhimurium
Salmonella typhimurium [13] = assay: Antimutagenic activity in Salmonella Typhimurium T-100 assessed as inhibition of ethyl methanesulfonate-induced mutation at 75 ug/plate; format: functional, Salmonella enterica subsp. enterica serovar Typhimurium
Salmonella typhimurium [14] = assay: Antimutagenic activity in Salmonella Typhimurium T-100 assessed as inhibition of ethyl methanesulfonate-induced mutation at 37.5 ug/plate; format: functional, Salmonella enterica subsp. enterica serovar Typhimurium
Salmonella typhimurium [15] = assay: Toxicity to Salmonella Typhimurium at 0.3 to 0.075 mg/plate; format: organism-based, Salmonella enterica subsp. enterica serovar Typhimurium; details: in vivo
Salmonella typhimurium [16] = assay: Toxicity to Salmonella Typhimurium at 0.6 mg/plate; format: organism-based, Salmonella enterica subsp. enterica serovar Typhimurium; details: in vivo

## C=CC(C)(C)c1cc(-c2coc3cc(O)cc(O)c3c2=O)c(O)cc1O [FREMONTIN]
Salmonella typhimurium [1]
  inhibition (INH): 93%
Salmonella typhimurium [2]
  inhibition (INH): 24%
Salmonella typhimurium [3]
  inhibition (INH): 0%
Salmonella typhimurium [4]
  inhibition (INH): 65%
Salmonella typhimurium [5]
  inhibition (INH): 92%
Salmonella typhimurium [6]
  inhibition (INH): 92%
Salmonella typhimurium [7]
  inhibition (INH): 0%
Salmonella typhimurium [8]
  inhibition (INH): 0%
Salmonella typhimurium [9]
  inhibition (INH): 0%
Salmonella typhimurium [10]
  inhibition (INH): 0%
Salmonella typhimurium [11]
  inhibition (INH): 87%
Salmonella typhimurium [12]
  inhibition (INH): 81%
Salmonella typhimurium [13]
  inhibition (INH): 90%
Salmonella typhimurium [14]
  inhibition (INH): 58%
Salmonella typhimurium [15]
  Activity: Non-toxic

## C=CC(C)(C)c1cc(-c2coc3cc(O)cc(O)c3c2=O)c(O)c(CC=C(C)C)c1O [FREMONTONE]
Salmonella typhimurium [1]
  inhibition (INH): 93%
Salmonella typhimurium [2]
  inhibition (INH): 17%
Salmonella typhimurium [3]
  inhibition (INH): 78%
Salmonella typhimurium [4]
  inhibition (INH): 89%
Salmonella typhimurium [7]
  inhibition (INH): 70%
Salmonella typhimurium [8]
  inhibition (INH): 27%
Salmonella typhimurium [9]
  inhibition (INH): 3%
Salmonella typhimurium [10]
  inhibition (INH): 0%
Salmonella typhimurium [11]
  inhibition (INH): 94%
Salmonella typhimurium [12]
  inhibition (INH): 86%
Salmonella typhimurium [13]
  inhibition (INH): 81%
Salmonella typhimurium [14]
  inhibition (INH): 63%
Salmonella typhimurium [16]
  Activity: Non-toxic
Salmonella typhimurium [15]
  Activity: Non-toxic
